Counter-ions that a name gives are not always drawn.
System: C57BL/6 mice
Experiment: animal or person
Assay type: in vivo
Settings: Mus musculus, sc, 0.5 h, s.c. administration, 30 min, 55° C. water, read-out: ED50 (mg/kg) at 30 min on C57BL/6 mice in Warm-water Tail-flick Test

Row | Compound | ED50
1 | CCOCC1(CCc2ccccc2)CCN(C(CC)c2ccc(C)nc2)C1 (stereo not drawn) [Compound 298, 5-(1-(3-(ethoxymethyl)-3-phenethylpyrrolidin-1-yl)propyl)-2-methylpyridine] | < 10 mg/kg
2 | CC(=O)Nc1ccc(CN2CCCC(/C=C/c3ccccc3)(c3ccccn3)C2)cc1 (stereo not drawn) [Compound 71, (E)-N-(4-((3-(pyridin-2-yl)-3-styrylpiperidin-1-yl)methyl)phenyl)acetamide] | > 10 mg/kg
3 | CC(=O)Nc1ccc(CN2CCC(CCc3ccccc3)(Oc3ccccn3)CC2)cc1 [Compound 124, N-(4-((4-phenethyl-4-(pyridin-2-yloxy)piperidin-1-yl)methyl)phenyl)acetamide] | > 10 mg/kg
4 | CCOC[C@@]1(CCc2cccs2)CCN(C2(c3cccnc3)CC2)C1 [Compound 395, (S)-3-(1-(3-(ethoxymethyl)-3-(2-(thiophen-2-yl)ethyl)pyrrolidin-1-yl)cyclopropyl)pyridine] | < 10 mg/kg
5 | Cc1ccc(CN2[C@@H](C)CC(CCc3ccc(F)cn3)(c3ccccn3)C[C@@H]2C)cn1 (stereo partly drawn) [Compound 467, 2-(2-((2S,6S)-2,6-dimethyl-1-((6-methylpyridin-3-yl)methyl)-4-(pyridin-2-yl)piperidin-4-yl)ethyl)-5-fluoropyridine] | > 10 mg/kg
6 | CCOCC1(CCc2ccccc2)CCN(Cc2ccccc2-c2cccs2)C1 (stereo not drawn) [Compound 316, 3-(ethoxymethyl)-3-phenethyl-1-(2-(thiophen-2-yl)benzyl)pyrrolidine] | > 10 mg/kg
7 | CCOCC1(CCc2ccccc2)CCN(Cc2ccc(C)nc2)C1 (stereo not drawn) [Compound 276, 5-((3-(ethoxymethyl)-3-phenethylpyrrolidin-1-yl)methyl)-2-methylpyridine] | < 10 mg/kg
8 | CCOCC1(CCc2ccccc2)CCN(Cc2ccc(NC(=O)C(C)C)cc2)CC1 [Compound 95, N-(4-((4-(ethoxymethyl)-4-phenethylpiperidin-1-yl)methyl)phenyl)iso-butyramide] | > 10 mg/kg
9 | Clc1ccccc1CN1CCC(CCc2ccccc2)(C2CCCCO2)C1 (stereo not drawn) [Compound 210, 1-(2-chlorobenzyl)-3-phenethyl-3-(tetrahydro-2H-pyran-2-yl)pyrrolidine] | > 10 mg/kg
10 | CCOC[C@@]1(CCc2cccs2)CCN(Cc2ccc(C)nc2C)C1 [Compound 334, (S)-3-((3-(ethoxymethyl)-3-(2-(thiophen-2-yl)ethyl)pyrrolidin-1-yl)methyl)-2,6-dimethylpyridine] | < 10 mg/kg
11 | c1ccc(CCC2(C3CCCO3)CCN(Cc3ccncc3)C2)cc1 (stereo not drawn) [Compound 236, 4-((3-phenethyl-3-(tetrahydrofuran-2-yl)pyrrolidin-1-yl)methyl)pyridine] | > 10 mg/kg
12 | CC(C)CCC(=O)Nc1ccc(CN2CCC(CCc3ccccc3)(c3ccccn3)CC2)cc1 [Compound 21, 4-methyl-N-(4-((4-phenethyl-4-(pyridin-2-yl)piperidin-1-yl)methyl)phenyl)pen-tanamide] | > 10 mg/kg
13 | CCOC[C@@]1(CNc2ccccc2)CCN(Cc2ccc(C)nc2)C1.Cl [Compound 442, (R)-N-((3-(ethoxymethyl)-1-((6-methylpyridin-3-yl)methyl)pyrrolidin-3-yl)methyl)aniline HCl] | < 10 mg/kg
14 | CCOCC1(CCc2ccsc2C)CCN(Cc2cccnc2)C1 (stereo not drawn) [Compound 286, 3-((3-(ethoxymethyl)-3-(2-(2-methylthiophen-yl)ethyl)pyrrolidin-1-yl)methyl)pyridine] | < 10 mg/kg
15 | C1=CC(C2(CCc3cccs3)CCN(Cc3cccnc3)CC2)OC1 (stereo not drawn) [Compound 293, 3-((4-(2,5-dihydrofuran-2-yl)-4-(2-(thiophen-2-yl)ethyl)piperidin-1-yl)methyl)pyridine] | > 10 mg/kg
16 | CCOCC1(CCc2cccs2)CCN(Cc2ccc(NC(C)=O)cc2)CC1.Cl [Compound 102, N-(4-((4-(ethoxymethyl)-4-(2-(thiophen-2-yl)ethyl)piperidin-1-yl)methyl)phenyl)acetamide HCl] | < 10 mg/kg
17 | CCOCC1(CCc2ccccc2)CN(Cc2ccc(NC(C)=O)cc2)C1.Cl [Compound 97, N-(4-((3-(ethoxymethyl)-3-phenethylazetidin-1-yl)methyl)phenyl)acetamide HCl] | > 10 mg/kg
18 | CC(=O)Nc1ccc(CN2CCC(CCc3ccccc3)(c3ccccn3)CC2)cc1F.Cl [Compound 52, N-(2-fluoro-4-((4-phenethyl-4-(pyridin-2-yl)piperidin-1-yl)methyl)phenyl)acetamide HCl] | > 10 mg/kg
19 | Cc1cncc(CN2CCC(CCc3ccccc3)(C3CCCO3)C2)c1 (stereo not drawn) [Compound 257, 3-methyl-5-((3-phenethyl-3-(tetrahydrofuran-2-yl)pyrrolidin-1-yl)methyl)pyridine] | < 10 mg/kg
20 | CCOC[C@@]1(CCC2CC2)CCN(C(C)(C)c2ccc(C)nc2)C1 [Compound 457, (S)-5-(2-(3-(2-cyclopropylethyl)-3-(ethoxy-methyl)pyrrolidin-1-yl)propan-2-yl)-2-methylpyridine citrate] | < 10 mg/kg
21 | CCOCC1(CCc2ccc(C)s2)CCN(Cc2cccnc2)C1 (stereo not drawn) [Compound 285, 3-((3-(ethoxymethyl)-3-(2-(5-methylthiophen-2-yl)ethyl)pyrrolidin-1-yl)methyl)pyridine] | > 10 mg/kg

Row | Compound | ED50
22 | CC(=O)Nc1ccc(CN2CCC(CCc3ccsc3)(C3CCO3)CC2)cc1 (stereo not drawn) [Compound 185, N-(4-((4-(oxetan-2-yl)-4-(2-(thiophen-3-yl)ethyl)piperidin-1-yl)methyl)phenyl)acetamide] | < 10 mg/kg
23 | FC(F)OC[C@@]1(CCc2cccs2)CCN(Cc2cccnc2)C1 [Compound 392, (S)-3-((3-((difluorometh-oxy)methyl)-3-(2-(thiophen-2-yl)ethyl)pyrrolidin-1-yl)methyl)pyridine] | < 10 mg/kg
24 | CCOCC1(CCc2nccn2C)CCN(C(C)c2ccc(C)nc2)C1 (stereo not drawn) [Compound 358, 5-(1-(3-(ethoxymethyl)-3-(2-(1-methyl-1H-imidazol-2-yl)ethyl)pyrrolidin-1-yl)ethyl)-2-methylpyridine] | > 10 mg/kg
25 | CCOCC1(CCc2ccc(F)cc2)CCN(Cc2cccnc2)C1 (stereo not drawn) [Compound 290, 3-((3-(ethoxy-methyl)-3-(4-fluoro-phenethyl)pyrrolidin-1-yl)methyl)pyridine] | < 10 mg/kg
26 | c1ccc(CCC2(C3CCCO3)CCN(Cc3ccc(-c4ccco4)cc3)C2)cc1 (stereo not drawn) [Compound 220] | > 10 mg/kg
27 | CCOCC1(CCc2ccccc2)CCN(Cc2ccc(CC(=O)NC)cc2)CC1 [Compound 162, 2-(4-((4-(ethoxymethyl)-4-phenethylpiperidin-1-yl)methyl)phenyl)-N-methylacetamide] | > 10 mg/kg
28 | CC(=O)Nc1ccc(CN2CCC(C(=O)c3ccccc3)(c3ccccn3)CC2)cc1 [Compound 42, N-(4-((4-benzoyl-4-(pyridin-2-yl)piperidin-1-yl)methyl)phenyl)acetamide] | > 10 mg/kg
29 | CCOCC1(CCc2ccccc2OC)CCN(Cc2ccc(NC(C)=O)cc2)CC1 [Compound 170, N-(4-((4-(ethoxymethyl)-4-(2-methoxy-phenethyl)piperidin-1-yl)methyl)phenyl)acetamide] | > 10 mg/kg
30 | CCOCC1(CCc2ccccc2)CCN(N(C)c2ccc(C)nc2)C1 (stereo not drawn) [Compound 438, N-(3-(ethoxymethyl)-3-phenethylpyrrolidin-1-yl)-N,6-dimethylpyridin-3-amine] | > 10 mg/kg
31 | CCOC[C@@]1(CCc2ccc(F)cc2)CCN(Cc2ccc(C)nc2)C1 [Compound 320, (S)-5-((3-(ethoxymethyl)-3-(4-fluoro-phenethyl)pyrrolidin-1-yl)methyl)-2-methylpyridine] | < 10 mg/kg
32 | CC(=O)Nc1ccc(CN2CCC(CCc3ccccc3)(C3CCO3)CC2)cc1 (stereo not drawn) [Compound 91, N-(4-((4-(oxetan-2-yl)-4-phenethylpiperidin-1-yl)methyl)phenyl)acetamide] | < 10 mg/kg
33 | CC(=O)Nc1ccc(CN2CCCC(CCc3ccccc3)(c3ccccn3)C2)cc1 (stereo not drawn) [Compound 32, N-(4-((3-phenethyl-3-(pyridin-2-yl)piperidin-1-yl)methyl)phenyl)acetamide] | > 10 mg/kg
34 | CCOCC1(CCc2ccsc2)CCN(Cc2ccc(C)nc2)C1 (stereo not drawn) [Compound 277, 5-((3-(ethoxymethyl)-3-(2-(thiophen-3-yl)ethyl)pyrrolidin-l-yl)methyl)-2-methylpyridine] | < 10 mg/kg
35 | CCOCC1(CCc2ccccc2)CCN(Cc2ccc(CC(=O)N(C)OC)cc2)CC1 [Compound 143, 2-(4-((4-(ethoxymethyl)-4-phenethylpiperidin-1-yl)methyl)phenyl)-N-methoxy-N-methylacetamide] | > 10 mg/kg
36 | CC(=O)Nc1ccc(CN2CCC(CCc3cccs3)(C3C=CCO3)CC2)cc1 (stereo not drawn) [Compound 182, N-(4-((4-(2,5-dihydrofuran-2-yl)-4-(2-(thiophen-2-yl)ethyl)piperidin-1-yl)methyl)phenyl)acetamide] | > 10 mg/kg
37 | CCOC[C@@]1(CCc2nc3ncncc3[nH]2)CCN(C(C)(C)c2ccc(C)nc2)C1 [Compound 456, (S)-8-(2-(3-(ethoxymethyl)-1-(2-(6-methylpyridin-3-yl)propan-2-yl)pyrrolidin-3-yl)ethyl)-7H-purine citrate] | < 10 mg/kg
38 | COc1cc(CC[C@]2(CO)CCN(C(C)(C)c3ccc(C)nc3)C2)ccn1.Cl [Compound 369, (S)-(3-(2-(2-methoxypyridin-4-yl)ethyl)-1-(2-(6-methylpyridin-3-yl)propan-2-yl)pyrrolidin-3-yl)methanol HCl] | < 10 mg/kg
39 | CCOCC1(CCc2ccccc2)CCN(Cc2ccc(C(C)O)cc2)CC1.Cl (stereo not drawn) [Compound 156, 1-(4-((4-(ethoxymethyl)-4-phenethylpiperidin-1-yl)methyl)phenyl)ethanol HCl] | > 10 mg/kg
40 | CCOC[C@@]1(CCc2cccs2)CCN(Cc2cnn(C)c2)C1.Cl [Compound 430, (S)-4-((3-(ethoxymethyl)-3-(2-(thiophen-2-yl)ethyl)pyrrolidin-1-yl)methyl)-1-methyl-1H-pyrazole HCl] | < 10 mg/kg
41 | CCOCC1(CCc2ccccc2)CCN(Cc2ccc(-c3nnc(OCC)[nH]3)cc2)CC1 [Compound 188, 1-(4-(5-ethoxy-4H-1,2,4-triazol-3-yl)benzyl)-4-(ethoxymethyl)-4-phenethylpiperidine] | > 10 mg/kg
42 | CCOC[C@@]1(CCc2cccs2)CCN(Cc2cccnn2)C1 [Compound 405, (S)-3-((3-(ethoxymethyl)-3-(2-(thiophen-2-yl)ethyl)pyrrolidin-1-yl)methyl)pyridazine] | > 10 mg/kg

Source: US11584765B2 (priority 2017, dated 2023)
